Assay results published in ChEMBL document CHEMBL1201862, “PubChem BioAssay data set” (2004).
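A five-concentration, 48-hour dose response in 96-well plates underlies each endpoint, interpolated linearly between surrounding concentrations. Here, GI50 denotes the concentration required for 50% inhibition of growth.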 Active and inactive are the calls of the source. Cut-off read from the data, not from the text of the source: active = GI50 up to about 1.1 µM and inactive = higher.

Assays:
Assay in all cases: growth of human tumour cells (NCI), 48 h
SNB-19 = system: SNB-19
KM12 = system: KM12
DU-145 = system: DU-145
A498 = system: A498
A549 = system: A549
HCT-116 = system: HCT-116
UO-31 = system: UO-31
RPMI-8226 = system: RPMI-8226
HCC 2998 = system: HCC 2998
K562 = system: K562
ACHN = system: ACHN
MDA-N = system: MDA-N
786-0 = system: 786-0
UACC-257 = system: UACC-257
OVCAR-4 = system: OVCAR-4
MOLT-4 = system: MOLT-4
MDA-MB-435 = system: MDA-MB-435
CCRF-CEM = system: CCRF-CEM
OVCAR-3 = system: OVCAR-3
COLO 205 = system: COLO 205
SK-MEL-2 = system: SK-MEL-2
SW-620 = system: SW-620
HT-29 = system: HT-29
NCI-H226 = system: NCI-H226
NCI-H23 = system: NCI-H23
NCI/ADR-RES = system: NCI/ADR-RES
UACC-62 = system: UACC-62
HOP-92 = system: HOP-92
MDA-MB-231 = system: MDA-MB-231
NCI-H460 = system: NCI-H460
OVCAR-5 = system: OVCAR-5
LOX IMVI = system: LOX IMVI
TK-10 = system: TK-10
SF-295 = system: SF-295
NCI-H522 = system: NCI-H522
Hs-578T = system: Hs-578T
SK-MEL-5 = system: SK-MEL-5
RXF 393 = system: RXF 393
HOP-62 = system: HOP-62
PC-3 = system: PC-3
U-251 = system: U-251
MCF7 = system: MCF7
HCT-15 = system: HCT-15
M14 = system: M14
EKVX = system: EKVX
Malme-3M = system: Malme-3M
SF-268 = system: SF-268
SNB-75 = system: SNB-75
SN12C = system: SN12C
SR = system: SR
SK-OV-3 = system: SK-OV-3
SK-MEL-28 = system: SK-MEL-28
CAKI-1 = system: CAKI-1
IGROV-1 = system: IGROV-1
BT-549 = system: BT-549
HL-60 = system: HL-60
T47D = system: T47D
OVCAR-8 = system: OVCAR-8

Q: For Cc1ccc(/N=C2\C(=O)C3=C(OC(C)(C)CC3)c3ccccc32)cc1, which GI50 (SNB-19) is on record?
A: 851 nM (active)

Q: And the GI50 (KM12)?
A: 1520 nM (inactive)

Q: And the GI50 (DU-145)?
A: 1310 nM (inactive)

Q: What about the GI50 (A498) of the same compound?
A: 2060 nM (inactive)

Q: And the GI50 (A549)?
A: 1830 nM (inactive)

Q: And the GI50 (HCT-116)?
A: 292 nM (active)

Q: And the GI50 (UO-31)?
A: 652 nM (active)

Q: What about the GI50 (RPMI-8226) of the same compound?
A: 232 nM (active)

Q: And the GI50 (HCC 2998)?
A: 1770 nM (inactive)

Q: What about the GI50 (K562) of the same compound?
A: 197 nM (active)

Q: And the GI50 (ACHN)?
A: 313 nM (active)

Q: And the GI50 (MDA-N)?
A: 183 nM (active)

Q: What about the GI50 (786-0) of the same compound?
A: 1780 nM (inactive)

Q: What about the GI50 (UACC-257) of the same compound?
A: 748 nM (active)

Q: What about the GI50 (OVCAR-4) of the same compound?
A: 986 nM (active)

Q: And the GI50 (MOLT-4)?
A: 729 nM (active)

Q: And the GI50 (MDA-MB-435)?
A: 183 nM (active)

Q: And the GI50 (CCRF-CEM)?
A: 2040 nM (inactive)

Q: And the GI50 (OVCAR-3)?
A: 151 nM (active)

Q: What about the GI50 (COLO 205) of the same compound?
A: 1690 nM (inactive)

Q: What about the GI50 (SK-MEL-2) of the same compound?
A: 1700 nM (inactive)

Q: What about the GI50 (SW-620) of the same compound?
A: 738 nM (active)

Q: What about the GI50 (HT-29) of the same compound?
A: 247 nM (active)

Q: What about the GI50 (NCI-H226) of the same compound?
A: 2860 nM (inactive)

Q: And the GI50 (NCI-H23)?
A: 1080 nM (active)

Q: What about the GI50 (NCI/ADR-RES) of the same compound?
A: 318 nM (active)

Q: And the GI50 (UACC-62)?
A: 1490 nM (inactive)

Q: What about the GI50 (HOP-92) of the same compound?
A: 1770 nM (inactive)

Q: And the GI50 (MDA-MB-231)?
A: 1680 nM (inactive)

Q: And the GI50 (NCI-H460)?
A: 1580 nM (inactive)

Q: What about the GI50 (OVCAR-5) of the same compound?
A: 1510 nM (inactive)

Q: What about the GI50 (LOX IMVI) of the same compound?
A: 269 nM (active)

Q: What about the GI50 (TK-10) of the same compound?
A: 2270 nM (inactive)

Q: And the GI50 (SF-295)?
A: 1400 nM (inactive)

Q: And the GI50 (NCI-H522)?
A: 1250 nM (inactive)

Q: And the GI50 (Hs-578T)?
A: 2820 nM (inactive)

Q: And the GI50 (SK-MEL-5)?
A: 951 nM (active)

Q: What about the GI50 (RXF 393) of the same compound?
A: 1710 nM (inactive)

Q: And the GI50 (HOP-62)?
A: 542 nM (active)

Q: And the GI50 (PC-3)?
A: 1220 nM (inactive)

Q: And the GI50 (U-251)?
A: 577 nM (active)

Q: And the GI50 (MCF7)?
A: 290 nM (active)

Q: What about the GI50 (HCT-15) of the same compound?
A: 415 nM

Q: And the GI50 (M14)?
A: 459 nM (active)

Q: What about the GI50 (EKVX) of the same compound?
A: 1810 nM (inactive)

Q: What about the GI50 (Malme-3M) of the same compound?
A: 352 nM (active)

Q: And the GI50 (SF-268)?
A: 1530 nM (inactive)

Q: What about the GI50 (SNB-75) of the same compound?
A: 1260 nM (inactive)

Q: What about the GI50 (SN12C) of the same compound?
A: 505 nM (active)

Q: And the GI50 (SR)?
A: 275 nM (active)

Q: And the GI50 (SK-OV-3)?
A: 1570 nM (inactive)

Q: What about the GI50 (SK-MEL-28) of the same compound?
A: 1210 nM (inactive)

Q: And the GI50 (CAKI-1)?
A: 1710 nM (inactive)

Q: And the GI50 (IGROV-1)?
A: 703 nM (active)

Q: What about the GI50 (BT-549) of the same compound?
A: 1330 nM (inactive)

Q: What about the GI50 (HL-60) of the same compound?
A: 227 nM (active)

Q: And the GI50 (T47D)?
A: 366 nM (active)

Q: What about the GI50 (OVCAR-8) of the same compound?
A: 357 nM (active)
